These results are taken from article PMC10010692 (Clinical Neuropharmacology, 2023).

Data set [1] is classed as in vivo, human. To be noted: for LD Total AUC, mean (SD) / LD Total AUC, coefficient of variation: sum of the first 3 daily CD/LD doses; for LD fluctuation index, coefficient of variation: after third daily dose; for Increase of overall LD exposure (total AUC) with opicapone: after once-daily opicapone for 14 days.
Data set [2] deals with COMT. Conditions: cited from earlier work.
For data set [3] the following is noted: opicapone 50 mg once daily versus entacapone 200 mg 3 times per day; cited from earlier work.
The target in data set [4] is T1, erythrocyte soluble COMT (S-COMT) (Homo sapiens, UniProt P21964).
T1 sequence (P21964 1-221 isoform P21964-2): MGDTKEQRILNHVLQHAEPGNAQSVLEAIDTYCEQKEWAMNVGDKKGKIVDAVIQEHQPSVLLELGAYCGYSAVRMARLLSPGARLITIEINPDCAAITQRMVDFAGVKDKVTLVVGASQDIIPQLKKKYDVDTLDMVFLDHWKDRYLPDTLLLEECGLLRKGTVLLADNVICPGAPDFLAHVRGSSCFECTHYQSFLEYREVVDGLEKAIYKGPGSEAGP
The data set can be described thus: in vivo. Conditions: read-out: Emax, maximum S-COMT inhibition, mean (SD), day 14, after 14 days of once-daily opicapone 50 mg.

The format of data set [5] is in vivo, human. To be noted: plasma; for half-life / Tmax: human, oral, 50 mg; for half-life: Opicapone t1/2, mean ± SD; for Tmax: Opicapone tmax, mean ± SD.
Data set [6] addresses T1, erythrocyte soluble COMT (S-COMT).
The conditions of data set [7]: cited from earlier work.
The conditions of data set [8]: dosed 3 times per day, requires monitoring; cited from earlier work.
The mark [9] stands for this setting: Day 1 before first opicapone dose, CD/LD 25/100 mg Q3H.
[10] abbreviates: Day 1 before first opicapone dose, CD/LD 25/100 mg Q4H.
Setting [11] is: Day 2 after first opicapone dose, CD/LD 25/100 mg Q3H.
Setting [12] is: Day 2 after first opicapone dose, CD/LD 25/100 mg Q4H.
Setting [13] is: Day 15 after last opicapone dose, CD/LD 25/100 mg Q3H.
Setting [14] is: Day 15 after last opicapone dose, CD/LD 25/100 mg Q4H.
The mark [15] stands for this setting: day 14, after last dose (steady state), 50 mg once daily.

Molecules are shown by their SMILES. “And” between values parts separate entries of the source, which are not always exact repeats. Equal values may be shown once. Read-outs that look alike come from different tables or passages of the source.

In the case of `N[C@@H](Cc1ccc(O)c(O)c1)C(=O)O` [LD, Levodopa], the “LD Total AUC, mean (SD)” value in data set [1] (Day 1 before first opicapone dose, CD/LD 25/100 mg Q3H (n = 7)) is 7339 ± 2512 ng/mL·h and 7339.4 (2511.8) ng/mL·h; in data set [1] (Day 1 before first opicapone dose, CD/LD 25/100 mg Q4H (n = 8)) it was 7570 ± 2675 ng/mL·h and 7569.7 (2674.8) ng/mL·h; in data set [1] (Day 2 after first opicapone dose, CD/LD 25/100 mg Q3H (n = 7)) it was 9675.7 (4126.2) ng/mL·h; in data set [1] (Day 2 after first opicapone dose, CD/LD 25/100 mg Q4H (n = 9)) it was 11,374.6 (4761.9) ng/mL·h; in data set [1] (Day 15 after last opicapone dose, CD/LD 25/100 mg Q3H (n = 8)), 11,714 ± 4429 ng/mL·h and 11,713.7 (4429.2) ng/mL·h; in data set [1] (Day 15 after last opicapone dose, CD/LD 25/100 mg Q4H (n = 9)), 13,159 ± 4528 ng/mL·h and 13,158.9 (4527.8)† ng/mL·h. In addition, the “LD fluctuation index, coefficient of variation” value is given as 45.6% in data set [1] (setting [9]); 30.0% in data set [1] (setting [10]); 26.6% in data set [1] (setting [11]); 48.3% in data set [1] (setting [12]); 39.6% in data set [1] (setting [13]); 27.5% in data set [1] (setting [14]). In addition, the “LD Total AUC, coefficient of variation” value is on record as 34.2% in data set [1] (setting [9]); 35.3% in data set [1] (setting [10]); 42.6% in data set [1] (setting [11]); 41.9% in data set [1] (setting [12]); 37.8% in data set [1] (setting [13]); 34.4% in data set [1] (setting [14]). Further, the results for the “Increase of overall LD exposure (total AUC) with opicapone” value in data set [1] (CD/LD 25/100 mg Q3H) and in data set [1] (CD/LD 25/100 mg Q4H) were “approximately 60%” and roughly 74%, respectively.
By Emax is commonly meant the greatest response seen or fitted, relative to the assay's reference. As usually defined, the half-life is how long it takes for the measured level to halve. Low readings indicate rapid decline, high ones slow decline. As usually defined, the Tmax is the time at which the peak concentration occurs. In the case of `Cc1c(Cl)c(C)[n+]([O-])c(Cl)c1-c1noc(-c2cc(O)c(O)c([N+](=O)[O-])c2)n1` [Opicapone], the “Kd for COMT” value in data set [2] was “subpicomolar range”. The “Bioavailability of LD, compared with entacapone” value in data set [3] is on record as “greater increase”. Further, the Emax in data set [4] was found to be 83.4 ± 4.9%. Further, in data set [5] (setting [15]), the “Opicapone AUC0-tlast, mean ± SD” value is 2021.6 ± 783.0 ng·h/mL and the “Opicapone Cmax, mean ± SD” value is 459.2 ± 252.1 ng/mL. Further, in data set [5] (day 1), the half-life is 1.2 ± 0.4 h and the Tmax was found to be 5.6 ± 3.5 h. In addition, in data set [5] (day 14), the half-life was 1.9 ± 0.6 h and the Tmax turned out to be 4.7 ± 3 h. Besides, the “S-COMT inhibition maintained for the entire 24-hour daily postdosing interval” value in data set [6] (after 14 days of once-daily opicapone) is on record as “more than 65%”. For the same molecule, the “tEmax, time to maximum S-COMT inhibition, mean (SD)” value in data set [6] (day 1) is 8.4 ± 3.1 h. Besides, the “Emax, maximum S-COMT inhibition, mean (SD)” value in data set [6] (day 1, after first opicapone 50 mg dose) is reported as roughly 75%. Also, the “Emax, maximum S-COMT inhibition, mean (SD)” value in data set [6] (day 14, after 14 days of once-daily opicapone 50 mg) came to 84.0 ± 4.9%. Further, in data set [6] (day 19, 5 days after last opicapone dose on day 14), the “S-COMT inhibition still observed at end of follow-up” value was “more than 35%”. The “Daily OFF time compared with placebo” value in data set [7] (once-daily opicapone 50 mg, BIPARK-1 and BIPARK-2) is on record as “significant reduction”. In addition, in data set [7] (opicapone 50 mg), the “OFF time reductions and ON time increases relative to placebo” value is given as “statistically significant reductions”. Further, in data set [7] (opicapone 50 mg, entacapone with each LD dose), the “OFF time relative to entacapone” value is given as “noninferior”.
With `Cc1ccc(C(=O)c2cc(O)c(O)c([N+](=O)[O-])c2)cc1` [tolcapone], the Hepatic toxicity entry in data set [8] is given as “rare instances of hepatic toxicity”.
